Measured values from ChEMBL document CHEMBL1201862, “PubChem BioAssay data set” (2004).
Calls of active or inactive are those of the source.

Columns and labels:
[1] = biological target: T1, Rac GTPase-activating protein 1 (Homo sapiens, UniProt Q9H0H5); assay: blockers of MgcRacGAP-driven Rac1 GTP hydrolysis – biochemical, ADP Hunter fluorescence, primary and confirmatory, confirmation (AID 624330); format: functional
T1 sequence (Q9H0H5 whole entry): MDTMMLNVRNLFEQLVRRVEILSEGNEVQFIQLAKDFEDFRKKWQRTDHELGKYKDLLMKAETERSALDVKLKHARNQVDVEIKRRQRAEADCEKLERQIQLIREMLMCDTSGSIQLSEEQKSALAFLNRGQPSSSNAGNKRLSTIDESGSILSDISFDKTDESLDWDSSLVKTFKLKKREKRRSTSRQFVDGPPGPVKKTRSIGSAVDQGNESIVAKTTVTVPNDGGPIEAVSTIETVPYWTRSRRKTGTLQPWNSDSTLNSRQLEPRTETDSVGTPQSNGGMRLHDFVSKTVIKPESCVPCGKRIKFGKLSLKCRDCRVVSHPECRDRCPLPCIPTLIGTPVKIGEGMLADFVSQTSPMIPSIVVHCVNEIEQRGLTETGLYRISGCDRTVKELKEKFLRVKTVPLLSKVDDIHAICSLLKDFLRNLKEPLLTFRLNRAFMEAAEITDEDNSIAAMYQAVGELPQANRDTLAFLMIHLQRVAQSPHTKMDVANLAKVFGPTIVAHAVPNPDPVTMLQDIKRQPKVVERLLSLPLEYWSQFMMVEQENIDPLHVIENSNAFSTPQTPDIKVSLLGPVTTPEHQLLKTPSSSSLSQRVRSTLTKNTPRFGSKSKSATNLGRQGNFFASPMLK

[2] = viability loss in HeLa cells – cytotoxicity control for MgcRacGAP inhibitor project, dose response (AID 624300); format: functional
[3] = HIV-1 Vif–A3G interaction blockers – biochemical, TR-FRET, GST-Vif 1-94, biotin-A3G peptide, dose response retest, primary screen (AID 1117319); format: functional;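 note: TR-FRET signal of purified GST-Vif binding a biotinylated A3G peptide; inhibitors lower the FRET signal by blocking Vif and A3G binding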
[4] = viability loss in THP-1 monocytes – THP-1 cells, cytotoxicity control for Vif-APOBEC3G degradation inhibitor project, dose response (AID 1117359); format: functional; settings: THP-1
Vero = assay: viability of Vero cells under compound – cytotoxicity control for flavivirus capping enzyme inhibitors (AID 588742); format: functional; settings: Chlorocebus sabaeus
Cytochrome P450 3A4 = Cytochrome P450 3A4 (Homo sapiens, UniProt P08684);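 note: CYP3A4 tested as one member of a cytochrome P450 panel screen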
Cytochrome P450 1A2 = biological target: T2, Cytochrome P450 1A2 (Homo sapiens, UniProt P05177);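 note: PubChem cytochrome P450 panel assay, CYP1A2 panel member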
T2 sequence (P05177 whole entry): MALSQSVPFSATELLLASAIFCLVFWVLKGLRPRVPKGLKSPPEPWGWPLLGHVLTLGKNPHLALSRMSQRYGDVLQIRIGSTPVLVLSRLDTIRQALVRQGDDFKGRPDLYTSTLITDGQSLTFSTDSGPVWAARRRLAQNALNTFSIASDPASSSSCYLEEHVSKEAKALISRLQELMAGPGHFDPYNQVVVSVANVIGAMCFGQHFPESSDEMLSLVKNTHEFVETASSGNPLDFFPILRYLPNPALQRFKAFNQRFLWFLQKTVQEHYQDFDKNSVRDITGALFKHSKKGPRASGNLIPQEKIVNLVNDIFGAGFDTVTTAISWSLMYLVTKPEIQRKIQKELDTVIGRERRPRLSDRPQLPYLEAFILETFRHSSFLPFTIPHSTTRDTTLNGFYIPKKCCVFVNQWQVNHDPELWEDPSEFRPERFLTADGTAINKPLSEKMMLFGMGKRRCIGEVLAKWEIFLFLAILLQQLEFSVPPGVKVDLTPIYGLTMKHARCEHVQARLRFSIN

Cytochrome P450 2C9 = Cytochrome P450 2C9 (Homo sapiens, UniProt P11712)
[5] = NIH-3T3 fibroblast cytotoxicity, dose response, cytotoxicity control, cell-based, fluorescence, Alamar Blue, secondary assay (AID 2327); format: functional;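 note: NIH-3T3 mouse fibroblasts cultured with fluconazole at 8 µg/mL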
Albumin = Albumin (Bos taurus, UniProt P02769); assay: Counterscreen for inhibitors of T-cell receptor (TCR)-CD3 interaction: Fluorescence-based biochemical high throughput dose response assay to identify inhibitors of T-cell receptor (TCR)-CD3 interaction using a TAMRA-labeled BSA probe.; format: functional
[6] = fluconazole-exposed Candida albicans growth modulators – fluorescence, retest, confirmation (AID 2467); format: functional, cell-based
[7] = blockers of bursicon-stimulated LGR2 cAMP reporter – cell-based, HEK293, CRE-luciferase reporter, cherry pick, set 2, dose response (AID 743343); format: functional;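 note: transfected cells were stimulated with diluted bursicon conditioned medium after compound addition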
[8] = biological target: T3, Sentrin-specific protease 8 (Homo sapiens, UniProt Q96LD8); format: functional;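 note: luminescence read-out of SENP8 inhibition, dose-response confirmation following an ultra-high-throughput screen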
T3 sequence (Q96LD8 whole entry): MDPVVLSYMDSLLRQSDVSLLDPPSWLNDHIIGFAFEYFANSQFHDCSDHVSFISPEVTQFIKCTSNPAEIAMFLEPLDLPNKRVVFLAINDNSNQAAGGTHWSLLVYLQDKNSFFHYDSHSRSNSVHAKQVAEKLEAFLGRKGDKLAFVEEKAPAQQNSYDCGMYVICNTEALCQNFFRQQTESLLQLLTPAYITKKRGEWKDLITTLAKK

[9] = A549 cell cytotoxicity, dose response, cytotoxicity control, plate reader, cherry-pick, antagonist series (AID 743412); format: functional, cell-based
[10] = blockade of melanocortin 4 receptor signaling – cell-based, plate reader, cherry pick, counter-screen for LGR2 antagonist project, dose response (AID 743444); format: functional;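 note: transfected HEK 293 cells stimulated with alpha-MSH peptide; potency of inhibitors of the alpha-MSH evoked signal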
[11] = biological target: T4, Sentrin-specific protease 7 (Homo sapiens, UniProt Q9BQF6); format: functional;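 note: Luminescence-based dose-response confirmation of ultra-high-throughput screening hits, measuring inhibition of SENP7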
T4 sequence (Q9BQF6 whole entry): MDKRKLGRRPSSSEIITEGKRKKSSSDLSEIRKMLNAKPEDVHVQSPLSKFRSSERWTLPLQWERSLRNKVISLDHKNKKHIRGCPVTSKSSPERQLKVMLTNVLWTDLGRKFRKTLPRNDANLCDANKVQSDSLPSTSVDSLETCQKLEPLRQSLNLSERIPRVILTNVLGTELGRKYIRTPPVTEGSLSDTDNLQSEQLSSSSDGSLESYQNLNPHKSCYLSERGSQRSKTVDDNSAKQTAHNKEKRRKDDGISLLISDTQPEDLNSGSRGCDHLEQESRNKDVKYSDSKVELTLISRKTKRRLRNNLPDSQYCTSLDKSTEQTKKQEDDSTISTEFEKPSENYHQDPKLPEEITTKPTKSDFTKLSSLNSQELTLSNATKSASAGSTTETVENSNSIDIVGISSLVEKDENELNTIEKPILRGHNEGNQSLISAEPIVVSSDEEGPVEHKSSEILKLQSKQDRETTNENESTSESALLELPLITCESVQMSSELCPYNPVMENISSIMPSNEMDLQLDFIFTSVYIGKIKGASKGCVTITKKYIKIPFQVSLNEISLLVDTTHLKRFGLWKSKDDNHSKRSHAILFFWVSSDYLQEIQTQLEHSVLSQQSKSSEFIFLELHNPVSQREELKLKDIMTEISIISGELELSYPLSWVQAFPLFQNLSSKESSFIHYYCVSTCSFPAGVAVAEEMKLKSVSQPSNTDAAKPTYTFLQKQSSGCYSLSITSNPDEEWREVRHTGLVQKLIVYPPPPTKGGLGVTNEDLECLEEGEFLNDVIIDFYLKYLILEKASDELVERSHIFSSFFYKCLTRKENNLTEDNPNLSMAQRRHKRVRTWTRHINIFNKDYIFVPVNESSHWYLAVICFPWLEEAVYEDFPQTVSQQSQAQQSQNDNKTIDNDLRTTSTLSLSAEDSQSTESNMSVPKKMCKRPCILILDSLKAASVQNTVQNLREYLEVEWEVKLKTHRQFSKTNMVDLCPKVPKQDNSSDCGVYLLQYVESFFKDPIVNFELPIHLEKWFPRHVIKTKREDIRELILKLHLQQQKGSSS

[12] = biological target: T5, Sentrin-specific protease 6 (Homo sapiens, UniProt Q9GZR1); format: functional;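 note: Luminescence-based dose-response confirmatory assay of SENP6 inhibition, following up an ultra-high-throughput screen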
T5 sequence (Q9GZR1 whole entry): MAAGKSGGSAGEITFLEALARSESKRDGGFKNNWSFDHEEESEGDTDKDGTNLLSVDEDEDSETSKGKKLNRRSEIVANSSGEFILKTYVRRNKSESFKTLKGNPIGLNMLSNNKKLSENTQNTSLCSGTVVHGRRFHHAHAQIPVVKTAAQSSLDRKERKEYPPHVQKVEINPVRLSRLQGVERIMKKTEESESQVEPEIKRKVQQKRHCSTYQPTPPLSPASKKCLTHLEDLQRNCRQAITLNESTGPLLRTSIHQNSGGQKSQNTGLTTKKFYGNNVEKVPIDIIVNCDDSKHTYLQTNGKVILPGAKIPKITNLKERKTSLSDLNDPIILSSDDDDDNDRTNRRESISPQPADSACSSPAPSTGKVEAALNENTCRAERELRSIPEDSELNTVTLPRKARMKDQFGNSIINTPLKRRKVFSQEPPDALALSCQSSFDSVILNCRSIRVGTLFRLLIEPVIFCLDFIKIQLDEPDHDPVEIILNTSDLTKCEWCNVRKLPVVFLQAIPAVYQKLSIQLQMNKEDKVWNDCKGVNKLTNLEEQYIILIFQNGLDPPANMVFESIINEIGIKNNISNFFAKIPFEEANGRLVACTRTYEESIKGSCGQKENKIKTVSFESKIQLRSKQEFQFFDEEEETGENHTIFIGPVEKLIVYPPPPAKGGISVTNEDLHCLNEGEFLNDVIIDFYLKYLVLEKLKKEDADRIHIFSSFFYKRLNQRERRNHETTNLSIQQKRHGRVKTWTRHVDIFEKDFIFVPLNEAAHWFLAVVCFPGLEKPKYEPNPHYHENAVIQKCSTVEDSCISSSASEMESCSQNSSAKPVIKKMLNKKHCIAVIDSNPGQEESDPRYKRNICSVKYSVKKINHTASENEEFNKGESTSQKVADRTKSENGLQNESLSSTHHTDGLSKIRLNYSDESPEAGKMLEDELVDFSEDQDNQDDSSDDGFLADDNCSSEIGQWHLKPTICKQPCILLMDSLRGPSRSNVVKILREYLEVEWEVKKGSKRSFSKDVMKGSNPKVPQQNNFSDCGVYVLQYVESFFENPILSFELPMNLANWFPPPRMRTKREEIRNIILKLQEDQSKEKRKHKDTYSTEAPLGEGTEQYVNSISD

[13] = viability loss in HEK293 cells – cell-based, plate reader, cherry-picked samples, cytotoxicity control, dose response (AID 743446); format: functional
Caspase-3 = biological target: T6, Caspase-3 (Homo sapiens, UniProt P42574); format: functional;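 note: Dose-response selectivity test against caspase-3 for candidate inhibitors of sentrin-specific proteases (SENPs)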
T6 sequence (P42574 whole entry): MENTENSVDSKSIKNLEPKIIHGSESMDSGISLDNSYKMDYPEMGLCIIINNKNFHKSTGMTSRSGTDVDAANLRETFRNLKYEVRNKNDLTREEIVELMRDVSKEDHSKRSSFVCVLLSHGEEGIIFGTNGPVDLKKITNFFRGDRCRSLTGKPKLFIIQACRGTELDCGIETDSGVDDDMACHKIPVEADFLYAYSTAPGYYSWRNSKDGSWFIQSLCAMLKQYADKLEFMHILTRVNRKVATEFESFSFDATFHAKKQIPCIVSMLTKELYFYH

[14] = toxicity toward HepG2 liver cells – cell-based, plate reader, cherry-pick, antagonist series, cytotoxicity control, dose response (AID 743416); format: functional

Chain of Cytochrome P450 3A4 (P08684 whole entry): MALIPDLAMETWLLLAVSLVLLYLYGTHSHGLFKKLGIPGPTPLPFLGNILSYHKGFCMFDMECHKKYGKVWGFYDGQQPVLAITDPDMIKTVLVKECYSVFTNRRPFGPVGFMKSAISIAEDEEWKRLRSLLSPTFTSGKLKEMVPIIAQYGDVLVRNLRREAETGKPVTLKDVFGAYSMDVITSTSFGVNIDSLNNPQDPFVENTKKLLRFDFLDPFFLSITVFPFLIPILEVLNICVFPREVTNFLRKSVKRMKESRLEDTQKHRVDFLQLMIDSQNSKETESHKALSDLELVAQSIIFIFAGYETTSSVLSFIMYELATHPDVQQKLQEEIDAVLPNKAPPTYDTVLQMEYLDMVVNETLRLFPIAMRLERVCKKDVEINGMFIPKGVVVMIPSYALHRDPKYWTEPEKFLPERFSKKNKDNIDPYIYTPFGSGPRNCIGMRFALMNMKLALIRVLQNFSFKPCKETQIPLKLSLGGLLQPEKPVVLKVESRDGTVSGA
Chain of Cytochrome P450 2C9 (P11712 whole entry): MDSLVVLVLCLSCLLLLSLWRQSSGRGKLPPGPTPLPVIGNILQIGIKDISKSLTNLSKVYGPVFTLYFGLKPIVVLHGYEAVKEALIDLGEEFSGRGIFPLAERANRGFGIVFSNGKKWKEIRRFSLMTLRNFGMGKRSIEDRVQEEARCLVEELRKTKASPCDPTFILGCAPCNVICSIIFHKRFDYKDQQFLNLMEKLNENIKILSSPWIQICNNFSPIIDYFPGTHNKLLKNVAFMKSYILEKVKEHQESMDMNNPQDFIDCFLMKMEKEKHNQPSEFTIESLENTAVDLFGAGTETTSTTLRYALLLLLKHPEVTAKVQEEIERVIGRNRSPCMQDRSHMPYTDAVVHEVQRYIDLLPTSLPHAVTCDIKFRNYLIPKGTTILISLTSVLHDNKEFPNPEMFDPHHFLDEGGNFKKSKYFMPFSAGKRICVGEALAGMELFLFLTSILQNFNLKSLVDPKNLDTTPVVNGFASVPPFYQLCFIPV
Chain of Albumin (P02769 whole entry): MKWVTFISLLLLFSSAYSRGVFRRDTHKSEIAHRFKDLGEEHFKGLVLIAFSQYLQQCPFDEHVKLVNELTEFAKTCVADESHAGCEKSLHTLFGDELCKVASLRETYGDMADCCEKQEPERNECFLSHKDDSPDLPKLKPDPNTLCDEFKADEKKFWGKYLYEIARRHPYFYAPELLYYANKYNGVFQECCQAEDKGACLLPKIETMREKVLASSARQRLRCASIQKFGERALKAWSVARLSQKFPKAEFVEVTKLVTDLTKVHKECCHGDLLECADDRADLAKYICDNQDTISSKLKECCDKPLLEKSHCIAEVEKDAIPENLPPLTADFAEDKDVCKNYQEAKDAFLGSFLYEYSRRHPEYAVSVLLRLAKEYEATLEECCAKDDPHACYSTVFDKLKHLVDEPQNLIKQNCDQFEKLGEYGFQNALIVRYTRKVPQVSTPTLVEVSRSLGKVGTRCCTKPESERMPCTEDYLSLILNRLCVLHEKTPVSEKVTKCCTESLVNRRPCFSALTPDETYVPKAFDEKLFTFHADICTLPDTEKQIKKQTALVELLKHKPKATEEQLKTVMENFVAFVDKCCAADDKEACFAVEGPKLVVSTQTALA

In the case of Cc1cc(C)n(CC(O)CN2c3ccccc3Sc3ccccc32)n1 (centres undefined), the IC50 [1] was 82.6 µM (active), the CC50 [2] was 100 µM (active) and the IC50 [3] was > 100 µM (active).

For CCOc1cccc(CNc2ccc(O)cc2)c1OCc1ccccc1Cl, the CC50 [4] was 23 µM (active) and the CC50 (Vero) was > 40 µM (active).

With Cc1ccc(NC(=O)CSc2nnc(C3CCCCC3)n2N)cc1F the IC50 [3] was > 100 µM (active).

In the case of CCN(CC)C(=O)CCNS(=O)(=O)c1ccc(C)cc1, the AC50 (Cytochrome P450 3A4) was 25.1 µM (inconclusive), the AC50 (Cytochrome P450 1A2) was 28.2 µM (inconclusive) and the AC50 (Cytochrome P450 2C9) was “inconclusive”. For the same compound, the IC50 [3] was > 100 µM (active).

For O=C(NNC(=O)c1ccccc1O)c1ccc(-c2ccc([N+](=O)[O-])cc2)o1, the EC50 [5] was > 150 µM (inactive), the CC50 [4] was 15.3 µM (active) and the IC50 (Albumin) was > 94.1 µM (inactive). The EC50 [6] was > 38 µM (not active).

In the case of O=C(OC(C(=O)NCc1cccs1)c1ccccc1Cl)c1ccco1 (centres undefined), the CC50 [4] was > 40 µM (active).

With COC(=O)Cc1cc(O)n2nc(C)cc2n1 the IC50 [3] was > 100 µM (active).

In the case of Cc1ccc(-c2csc(NC(=O)c3ccc(-c4ccccc4)cc3)n2)o1, the IC50 [3] was > 100 µM (active).

With COc1ccccc1C(=O)C1CCCN(Cc2ccc3c(c2)OCCO3)C1 (centres undefined) the CC50 [4] was > 40 µM (active).

For O=C(O)CN1C(=O)CSc2ccccc21, the IC50 [3] was > 100 µM (active).

With C/C(O)=C1/C(=O)N(C)C(=S)N(c2ccccc2)C1=O the IC50 [3] was > 100 µM (active).

With Cn1c(-c2ccccc2)cc2onc(-c3ccccc3)c2c1=O the AC50 [7] was 3.08 µM (active), the IC50 [8] was 3.11 µM (active) and the AC50 [9] was > 52 µM (inactive). The AC50 [10] was 3.66 µM (active), the IC50 [11] was 1.14 µM (active) and the IC50 [12] was 1.51 µM (active). The AC50 [13] was 51.9 µM (active), the IC50 (Caspase-3) was 2.4 µM (active) and the AC50 [14] was 34.4 µM (active).
